What was measured:
[1] = biological target: T1, EcTDH (L-threonine dehydrogenase) (Escherichia coli, UniProt P07913); assay: NADH formation at […] nm, lysate supernatant; type: biochemical; details: 100 mM Tris-HCl pH 9.0, 100 mM L-threonine, 50 mM NAD+, 30 °C
T1 construct: gene tdh; recombinant from pACYCDuet-1 (BamH I/Hind III) in E. coli BL21(DE3); crude lysate supernatant; gene about 1100 bp
T1 sequence (P07913 1-341): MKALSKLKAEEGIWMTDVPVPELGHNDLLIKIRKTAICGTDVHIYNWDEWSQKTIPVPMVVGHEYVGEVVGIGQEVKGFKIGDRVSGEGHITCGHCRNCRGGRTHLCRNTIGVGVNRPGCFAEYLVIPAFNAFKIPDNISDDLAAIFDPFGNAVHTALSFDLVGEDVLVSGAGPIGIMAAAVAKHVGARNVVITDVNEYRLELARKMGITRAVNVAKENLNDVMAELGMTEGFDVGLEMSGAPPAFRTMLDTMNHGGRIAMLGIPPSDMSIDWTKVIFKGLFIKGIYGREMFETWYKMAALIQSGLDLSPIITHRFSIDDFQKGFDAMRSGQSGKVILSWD

EhNOX (NADH oxidase) = biological target: T2, EhNOX (NADH oxidase) (Enterococcus hirae, UniProt I6S3N3); assay: NADH consumption, lysate supernatant; type: biochemical; details: 200 μM NADH, 10 μM FAD, 1 mM dithiothreitol, 20 mM citrate-sodium citrate pH 5.6
T2 construct: gene EHR_12315; recombinant from pACYCDuet-1-Ectdh-Ehnox (Nde I/Xho I) in E. coli BL21(DE3), co-expressed with EcTDH; crude lysate supernatant; gene about 1400 bp
T2 sequence (I6S3N3 1-450): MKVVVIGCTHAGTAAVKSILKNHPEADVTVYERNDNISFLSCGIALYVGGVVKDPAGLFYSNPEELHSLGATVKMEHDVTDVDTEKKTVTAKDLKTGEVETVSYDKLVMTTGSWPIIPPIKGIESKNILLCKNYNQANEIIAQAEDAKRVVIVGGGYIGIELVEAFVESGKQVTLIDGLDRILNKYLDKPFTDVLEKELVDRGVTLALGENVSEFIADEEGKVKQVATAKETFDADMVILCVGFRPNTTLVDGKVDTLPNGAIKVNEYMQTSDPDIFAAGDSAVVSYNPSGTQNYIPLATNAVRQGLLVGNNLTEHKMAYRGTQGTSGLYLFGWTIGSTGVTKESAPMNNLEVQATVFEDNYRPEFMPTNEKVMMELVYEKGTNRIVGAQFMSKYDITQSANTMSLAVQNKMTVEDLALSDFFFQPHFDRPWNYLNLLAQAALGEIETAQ

SMILES | NADH formation at 340 nm, lysate supernatant [1] | NADH consumption, lysate supernatant (EhNOX (NADH oxidase))
C[C@@H](O)[C@H](N)C(=O)O [L-threonine] | The enzyme activity of EcTDH was determined using L-threonine as the substrate | –
NC(=O)C1=CN([C@@H]2O[C@H](COP(=O)(O)OP(=O)(O)OC[C@H]3O[C@@H](n4cnc5c(N)ncnc54)[C@H](O)[C@@H]3O)[C@@H](O)[C@H]2O)C=CC1 [NADH] | – | The enzyme activity of EhNOX was determined using NADH as substrate
